Test [1] relates to NRF2 mediated gene NAD(P)H:quinone acceptor oxidoreductase 1 (NQO1) in BEAS-2B cells. The test can be described thus: Beas2B NQO1 mRNA Cell Based Assay. More on the design: species or system human. How it is done:
Beas2B NQO1 mRNA Cell Based Assay
The up regulation of the NRF2 mediated gene NAD(P)H:quinone acceptor oxidoreductase 1 (NQO1) was measured using the following assay method: BEAS-2B cells (ATCC CRL-9609) were plated in 96-well clear plates at 20,000 cells/well in 75 μL of cell culture media and incubated overnight (37° C., 5% CO2). On day 2, 25 μL of compound or controls were added to the cells for 24 h. On day 3, the medium was aspirated from the plate and the Cells-to-CT™ 1-Step TaqMan® Kit (Ambion A25603) was used to perform expression analysis directly from cultured cells without RNA purification according to the manufacturer's instructions.
Briefly, cells were washed with ice cold PBS and 22.5 μL of room-temperature DNase/Lysis solution was added to the cells and incubated at room temperature for 5 minutes. To stop the reaction, 2.25 μL of stop solution was added to the cell lysate. The samples were diluted 1:5 using nuclease free water and 2.5 μL transferred into the PCR plate. Real-time PCR was performed using the C-1000 Thermal Cycler (Bio-Rad) using human beta actin as the internal control. The cDNA was amplified with a specific primer for NQO1 using the 1-step RT-PCR master mix (Ambion Cells-to-CTTM 1-Step TaqMan® Kit A25603). The primers/probes sets that were used for amplification of cDNA were obtained from TaqMan Gene Expression Assays (Applied Biosystems). The comparative CT (ΔΔCT) relative quantification method was used to calculate the relative mRNA level of the target gene NQO1 as described in the Applied Biosystems Chemistry Guide. The data are expressed as an increase in target gene mRNA compared to vehicle (0.1% DMSO) control and the EC50 values were determined by fitting the data to a four parameter logistic fit using XLfit or XE Runner within ActivityBase.

Test [2] concerns the target T1, human KEAP1 (N-term, residues 321-609) (Homo sapiens, UniProt Q14145).
T1 construct: human KEAP1 (N-term, residues 321-609)
The experiment in a line: KEAP1 Kelch Fluorescence Polarization (FP) Assay. In kind it is binding. As to conditions: inhibition of Kelch domain-NRF2 interaction; 2 nM FITC-labelled NRF2 peptide, 25 nM KEAP1, 1 h room temperature; compounds below 10 nM cannot be differentiated. In short, it runs like this: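 FP competition: 2 nM FITC-NRF2 peptide (LDEETGEFL) with 25 nM KEAP1 Kelch domain, pH 8.0 Tris buffer, 0.5% DMSO, 1 h at room temperature; 12-point 1:3 dilutions from 10 μM.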

The mark [3] stands for this setting: Homo sapiens, BEAS-2B cells, compound for 24 h, increase in NQO1 mRNA compared to vehicle (0.1% DMSO) control, read-out: EC50.

Like-named read-outs stand apart in the source and are kept apart here. Bounds are passed on as bounds.

T1 sequence (Q14145 321-609): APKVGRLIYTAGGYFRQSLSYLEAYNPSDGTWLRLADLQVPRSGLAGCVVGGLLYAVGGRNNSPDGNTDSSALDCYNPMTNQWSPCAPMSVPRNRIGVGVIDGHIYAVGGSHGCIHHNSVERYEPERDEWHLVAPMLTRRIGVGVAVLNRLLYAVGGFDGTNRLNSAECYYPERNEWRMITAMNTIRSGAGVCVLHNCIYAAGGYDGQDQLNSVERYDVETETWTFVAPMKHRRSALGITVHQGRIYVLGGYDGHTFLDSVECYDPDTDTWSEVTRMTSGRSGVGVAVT

Usually EC50 stands for the concentration that produces a half-maximal response. For orientation: IC50 means the concentration needed to halve the response being measured. Consider `CNC(=O)[C@H]1CCCC[C@H]1C(=O)N1CCc2c(Cl)ccc(OCc3ccccn3)c2[C@H]1CN1CCCC1=O` [Example 63, (1S,2R)-2-((S)-5-chloro-1-((2-oxopyrrolidin-1-yl)methyl)-8-(pyridin-2-ylmethoxy)-1,2,3,4-tetrahydroisoquinoline-2-carbonyl)-N-methylcyclohexane-1-carboxamide], for which, in test [1] (setting [3]), the half-maximal effective concentration (EC50) was greater than 10 µM. In test [2], this compound registered an IC50 of 0.34 µM.
As to `CNC(=O)[C@]1(C)CCCC[C@@H]1C(=O)N1CCc2c(Cl)ccc(OCc3nnn(C)c3C(F)F)c2[C@@H]1CN1CC2(CC2)CC1=O` [Example 98, (1R,2S)-2-((R)-5-chloro-8-((5-(difluoromethyl)-1-methyl-1 H-1,2,3-triazol-4-yl)methoxy)-1-((6-oxo-5-azaspiro[2.4]heptan-5-yl)methyl)-1,2,3,4-tetrahydroisopuinoline-2-carbonyl)-N,1-dimethylcyclohexane-1-carboxamide], in test [1] (BEAS-2B cells, compound for 24 h, increase in NQO1 mRNA compared to vehicle (0.1% DMSO) control, read-out: EC50), the EC50 was found to be 0.041 µM. Besides, the IC50 in test [2] amounted to 0.006 µM.
Turning to `CNC(=O)[C@H]1CCCC[C@H]1C(=O)N1CCc2c(Cl)ccc(OCc3cncnc3)c2[C@H]1CN1CCCC1=O` [Example 64, (1S,2R)-2-((S)-5-chloro-1-((2-oxopyrrolidin-1-yl)methyl)-8-(pyrimidin-5-ylmethoxy)-1,2,3,4-tetrahydroisoquinoline-2-carbonyl)-N-methylcyclohexane-1-carboxamide], in test [1] (setting [3]), the EC50 was 5.75 µM. In test [2], this compound yielded an IC50 of 0.041 µM.
`CNC(=O)[C@@]1(C)CCC[C@H]1C(=O)N1CCc2c(Cl)ccc(OCc3nnn(C)c3C(F)F)c2[C@H]1CN1CCC(C)C1=O` (single isomer, unassigned) [Example 95]: in test [1] (setting [3]), the EC50 turned out to be 0.565 µM. Further, the IC50 in test [2] worked out at 0.023 µM.
Turning to `CNC(=O)[C@@]1(C)CCCC[C@H]1C(=O)N1CCc2c(Cl)cc(F)c(OCc3nnn(C)c3C(F)F)c2[C@H]1CN1CCOCC1=O` [Example 108, (1S,2R)-2-((S)-5-chloro-8-((5-(difluoromethyl)-1-methyl-1H-1,2,3-triazol-4-yl)methoxy)-7-fluoro-1-((3-oxomorpholino)methyl)-1,2,3,4-tetrahydroisoquinoline-2-carbonyl)-N,1-dimethylcyclohexane-1-carboxamide], the EC50 in test [1] (setting [3]) is 0.654 µM. In test [2], this compound displayed a half-inhibitory concentration (IC50) of 0.0073 µM.
For `CNC(=O)[C@H]1CCCC[C@H]1C(=O)N1CCc2c(Cl)ccc(OCc3cccnn3)c2[C@H]1CN1CCCC1=O` [Example 61, (1S,2R)-2-((S)-5-chloro-1-((2-oxopyrrolidin-1-yl)methyl)-8-(pyridazin-3-ylmethoxy)-1,2,3,4-tetrahydroisoquinoline-2-carbonyl)-N-methylcyclohexane-1-carboxamide], in that order: 1.08 µM and 0.034 µM.
On to `CNC(=O)[C@H]1CCCC[C@H]1C(=O)N1CCc2c(Cl)ccc(OCc3cn4cccnc4n3)c2[C@H]1CN1CCCC1=O` [Example 75, (1S,2R)-2-((S)-5-chloro-8-(imidazo[1,2-a]pyrimidin-2-ylmethoxy)-1-((2-oxopyrrolidin-1-yl)methyl)-1,2,3,4-tetrahydroisoquinoline-2-carbonyl)-N-methylcyclohexane-1-carboxamide], for which, in test [1] (setting [3]), the EC50 came out at 2.17 µM. Moreover, the IC50 in test [2] amounted to 0.073 µM.
The corresponding values for `CNC(=O)[C@@]1(C)CCCC[C@H]1C(=O)N1CCc2c(Cl)ccc(OCc3cn(C)nn3)c2[C@H]1CN1C[C@H](C)CC1=O` [Example 104, (1S,2R)-2-((S)-5-chloro-8-((1-methyl-1H-1,2,3-triazol-4-yl)methoxy)-1-(((R)-4-methyl-2-oxopyrrolidin-1-yl)methyl)-1,2,3,4-tetrahydroisoquinoline-2-carbonyl)-N,1-dimethylcyclohexane-1-carboxamide] are 0.784 µM and 0.011 µM.
Regarding `CNC(=O)[C@H]1CCCC[C@H]1C(=O)N1CCc2c(Cl)ccc(OCc3cnc4c(c3)ncn4C)c2[C@H]1CN1CCCC1=O` [Example 68, (1S,2R)-2-((S)-5-chloro-8-((3-methyl-3H-imidazo[4,5-b]pyridin-6-yl)methoxy)-1-((2-oxopyrrolidin-1-yl)methyl)-1,2,3,4-tetrahydroisoquinoline-2-carbonyl)-N-methylcyclohexane-1-carboxamide], in test [1] (setting [3]), the half-maximal effective concentration (EC50) amounted to 0.145 µM. In test [2], this compound returned an IC50 of 0.013 µM.
Turning to `CNC(=O)[C@@]1(C)CCCC[C@H]1C(=O)N1CCc2c(Cl)cc(F)c(OCc3nnn(C)c3C(F)F)c2[C@H]1CN1CC2(CC2)CC1=O` [Example 106, (1S,2R)-2-((S)-5-chloro-8-((5-(difluoromethyl)-1-methyl-1H-1,2,3-triazol-4-yl)methoxy)-7-fluoro-1-((6-oxo-5-azaspiro[2.4]heptan-5-yl)methyl)-1,2,3,4-tetrahydroisoquinoline-2-carbonyl)-N,1-dimethylcyclohexane-1-carboxamide], the EC50 in test [1] (setting [3]) amounted to 0.025 µM. Inhibition in test [2] was half-maximal at 0.0067 µM (IC50).
As to `CNC(=O)C1CCCC1C(=O)N1CCc2c(Cl)ccc(OCc3nnn(C)c3C(F)F)c2[C@H]1CN1CCCC1=O` (single isomer, unassigned) [Example 65], in test [1] (setting [3]), the EC50 was 1.86 µM. In addition, the IC50 in test [2] was determined as 0.018 µM.
Turning to `CNC(=O)[C@@]1(C)CCC[C@H]1C(=O)N1CCc2c(Cl)ccc(OCc3nnn(C)c3C(F)F)c2[C@H]1CN1CC2(CC2)CC1=O` [Example 94, (1S,2R)-2-((S)-5-chloro-8-((5-(difluoromethyl)-1-methyl-1H-1,2,3-triazol-4-yl)methoxy)-1-((6-oxo-5-azaspiro[2.4]heptan-5-yl)methyl)-1,2,3,4-tetrahydroisoquinoline-2-carbonyl)-N,1-dimethylcyclopentane-1-carboxamide], the EC50 in test [1] (setting [3]) was 0.148 µM. This compound also had an IC50 in test [2] of 0.013 µM.
The corresponding values for `CNC(=O)[C@H]1CCCC[C@H]1C(=O)N1CCc2c(Cl)ccc(OCc3noc4ncccc34)c2[C@H]1CN1CCCC1=O` [Example 70, (1S,2R)-2-((S)-5-chloro-8-(isoxazolo[5,4-b]pyridin-3-ylmethoxy)-1-((2-oxopyrrolidin-1-yl)methyl)-1,2,3,4-tetrahydroisoquinoline-2-carbonyl)-N-methylcyclohexane-1-carboxamide] are 0.295 µM and 0.029 µM.
For `CNC(=O)[C@H]1CCCC[C@H]1C(=O)N1CCc2c(Cl)ccc(OCc3cn(C)nn3)c2[C@H]1CN1CCCC1=O` [Example 74, (1S,2R)-2-((S)-5-chloro-8-((1-methyl-1H-1,2,3-triazol-4-yl)methoxy)-1-((2-oxopyrrolidin-1-yl)methyl)-1,2,3,4-tetrahydroisoquinoline-2-carbonyl)-N-methylcyclohexane-1-carboxamide], in that order: 0.334 µM and 0.016 µM.
Regarding `CNC(=O)N1CC2(CC2)C[C@H]1C(=O)N1CCc2c(Cl)ccc(OCc3nnn(C)c3C(F)F)c2[C@H]1CN1CCCC1=O` [Example 88, (S)-6-((S)-5-chloro-8-((5-(difluoromethyl)-1-methyl-1 H-1,2,3-triazol-4-yl)methoxy)-1-((2-oxopyrrolidin-1-yl)methyl)-1,2,3,4-tetrahydroisoquinoline-2-carbonyl)-N-methyl-5-azaspiro[2.41]heptane-5-carboxamide], the EC50 in test [1] (Homo sapiens, BEAS-2B, 24 h) worked out at 7.56 µM. Besides, half-maximal inhibition in test [2] (IC50) required 0.067 µM.
